SMILES strings stand for the structures. Where “and” joins values, the source holds several entries; their conditions need not be identical. Equal entries are not always repeated.

This is an account of results in publication PMC8333425, “Discovery of a dual Ras and ARF6 inhibitor from a GPCR endocytosis screen” (Nature Communications, 2021).

What all share (format): cell-based, human
The test system of data set [1] is ERK1/2 activation by AT1R. Nature of the data set: Western blot of AT1R-mediated ERK1/2 phosphorylation. The note with it: for p-ERK1/2 over ERK1/2, normalized to basal (0 min), AT1R: Comp 21 50 μM; for p-ERK1/2 over ERK1/2, normalized to basal (0 min), AT1R / ERK 1/2 activation, AT1R (p-ERK1/2 over ERK1/2, fold over basal): individual experiments. Here is the method:
HEK293SL cells (10^5 cells per well) were seeded in a poly-L-lysine-coated six-well plate and transiently transfected with 3 μg Flag-AT1R, HA-B2R or HA-β2AR and/or 500 ng Flag-MEK1-WT, Flag-MEK1-DD, Flag-BRAF-WT, Flag-BRAF-V600E, Flag-K-Ras-WT, Flag-K-Ras-G12V, HA-ARF6-WT, or HA-ARF6-T27N. Gαq/11 KO and βarr1/2 KO cells were seeded onto 100 mm dishes at a density of 10^6 cells per dish. Next day, cells were transfected with 3 μg AT1R alone or along with 500 ng of β-arrestin2 using PEI. After 18 h of transfection, cells were detached and re-seeded onto poly-L-lysine coated 12-well plates (~1.5–2 × 10^5cells/well) for subsequent experiments. Forty-eight hours post transfection, in a 37 °C water bath, cells were serum-starved for 30 min, pretreated with DMSO (0.1%) or compound 21/Rasarfin (50 µM or at indicated concentrations) for 30 min, then stimulated or not with the indicated ligand [AngII (1 µM), BK (1 µM), Iso (10 µM) or EGF (100 ng/ml)] at indicated times. Cells were put on ice, washed with PBS and solubilized in 2x laemmli buffer (250 mM Tris–HCl pH 6.8, 2% SDS (w/v), 10% glycerol (v/v), 0.01% bromophenol blue (w/v) and 5% β-mercaptoethanol (v/v)) by heating at 65 °C for 15 min. Lysates were resolved on 10 or 14% SDS-PAGE, transferred to nitrocellulose membranes and immunoblotted for p-ERK1/2, ERK1/2, p-Akt, Akt, HA, Myc, β-actin or FLAG. ImageLab 5.2 software was used to quantify the digital blots as fold of the phosphorylated protein over total protein, which were then normalized as indicated in the figure legends. Uncropped immunoblots are provided in the Source Data file.
(In general: Immunoblotting shows a protein as a band on a membrane.)

For another data set, the system named is MDA-MB-231 cells. Put plainly: Cell viability assay (MTT), MDA-MB-231. The following applies: for cell viability (MTT signal): S_Fig12f, listed as Comp 21.8. Here is the method:
MDA-MB-231 breast cancer cells and A549 lung carcinomas (1500 cells in 150 μl/well) were seeded overnight on a clear 96-well plate. Twenty-four hours later, the cells were treated with 0.1% DMSO, or different concentrations of Rasarfin (as indicated), or 10 µM of 21.4, 21.8 (MDA-MB-231 breast cancer cells) or Doxorubicin for the indicated times at 37 °C. At each time point, 10 μl of 5 mg/ml MTT was added to each well and the plates were incubated for an additional 4 h at 37 °C. The absorbance at 590 nm was measured by plate reader. Experiments were done in triplicate and repeated three times.

Another data set concerns AT1R. Nature of the data set: Endosomal BRET assay of AngII-mediated AT1R internalization (AT1R-RlucII / Endo-rGFP; HTS, validation, concentration-response). An excerpt:
We performed a HT campaign in HEK293 cells using the bystander endosomal BRET sensor, which consists of a Renilla luciferase (RlucII)-tagged AT1R and an acceptor renilla GFP (rGFP) anchored to endosomes through an Endofin-FYVE (Endo-rGFP) domain[12]. AngII-mediated trafficking of AT1R to endosomes was screened against commercial libraries of ~115,000 small molecules (Fig. 1a and Supplementary Data 1). Because our assay is based on luminescence and fluorescence, we excluded 6610 compounds that quenched more than 50% of the luciferase or GFP signals. After excluding 5 AT1R antagonists, we conserved hit compounds blocking by more than 40%, as well as those potentiating by more than 100% receptor internalization. From this collection of 943 compounds, a second validation on AT1R internalization was performed using the same BRET assay, as well as on the agonist-mediated B2R internalization, this time using B2R-RlucII and Endo-rGFP. Only compounds that were revalidated on AT1R and affected B2R endocytosis were kept, which included forty hits (20 potentiators and 20 inhibitors) (Fig. 1b and Supplementary Data 2). We focused on inhibitors that were commercially available at the beginning of the project and tested their cell toxicity by microscopy, looking at cells expressing B2R tagged with YFP, which highlights cell contours and potential morphological changes, such as rounding up of cells following treatment with 50 μM of the compounds that may have indicated cell death. None of the inhibitors tested caused abnormal cell morphological changes when cells were treated with compounds as compared to DMSO-treated cells. Inhibitors were also assessed in terms of structure novelty, derivatization potential, and commercial availability of analogs (within 95–98% similarity from Tanimoto metric, Sci-Finder, https://scifinder-n.cas.org), for structure-activity relationship studies (SAR). They were scored 1–5, from best to worst. We excluded compounds with potential nucleophilic reactivity (e.g., Michael addition: compounds 7, 26, and 27), those reported to have biological activities (compounds 8, 20, 25, 30, and 35) and/or showing autofluorescence (compound 26). Compound 19 ranked high, but only had one other molecule with a similar structure available. Although other molecules could be interesting in their own rights as endocytosis inhibitors (e.g., compounds 1, 9, 11, 12, 13, 24, 31, and 37), we focused on compound 21 (Fig. 1c) because not only did it rank high in our analysis, but it was also the only compound with substantially more similar analogs commercially available at the time of these investigations. In the screen and the follow-up validation assay, 21 inhibited more than 50% AT1R internalization and more than 65% B2R internalization (Supplementary Data 2). […] Because β-arrestins are critically involved in GPCR endocytosis and trafficking in cells, we assessed 21’s effects on β-arrestins’ recruitment to AT1R and B2R at the PM using a BRET assay, as well as their trafficking into endosomes by microscopy.
The chemical library used for initial screening was from Chembridge DiverSet™ (60,000 compounds), Maybridge HitFinder™ (16,000 compounds), Maybridge (selected, 16,000 compounds), SPECS (selected, 16000 compounds), Microsource Discovery Spectrum (2000 compounds), Biomol (natural products, 500 compounds), Prestwick (commercialized products, 1120 compounds), SIGMA LopacTM (1280 compounds) and internal collection (synthesized at Université de Montréal-IRIC, ~4000 compounds). Compounds were all assigned an Université de Montréal number (UM) for internal use. Screen was performed at IRIC HTS facility. KINOMEscan™ profiling was serviced by Eurofin/DiscoverX (San Diego, USA).
HEK293SL cells were seeded at a density of 7.5 × 10^5 cells per 100-mm dish and 24 h later, transiently transfected as such. […]
For orientation: In BRET a luciferase serves as donor, and the signal depends on an acceptor being close.

Take `Nn1cnc2scc(-c3ccc(Cc4ccccc4)cc3)c2c1=O` [Barbadin, reference compound]: the “MAPK promoted by AT1R” value in data set [1] (Barbadin 100 µM) is “ineffective at blocking MAPK”.
Take `CCCC(=O)N1CCN(c2ccc(NC(=O)c3cc4ccccc4o3)cc2Cl)CC1` [Compound 21.8]: in data set [1] (50 μM), the “inhibition of AT1R-mediated ERK1/2 (MAPK) activation (Fig. 8b)” value was “maintained its MAPK inhibitory property”. Moreover, the “metabolic activity of MDA-MB-231 cells (MTT)” value in the data set on MDA-MB-231 cells (10 µM) is recorded as “moderately decreasing the metabolic activity of cancer cells”. The “cell viability (MTT signal)” value was 0.2449 and 0.2125 and 0.1916 in the data set on MDA-MB-231 cells (24h); 0.2769 and 0.2869 and 0.2058 with MDA-MB-231 cells (48h); 0.2794 and 0.3667 and 0.3826 with MDA-MB-231 cells (72h). Also, in the data set with AT1R (50 μM), the “inhibition of AT1R internalization into endosomes (Fig. 8a)” value is given as “loss of compounds’ efficacy to inhibit AT1R internalization”.
As to `CC(C)C(=O)N1CCN(c2ccc(NC(=O)c3cc4ccccc4o3)cc2Cl)CC1` [Compound 21], the “AngII-mediated phosphorylation of ERK1/2” value in data set [1] (50 μM) is reported as “totally inhibited”. The “p-ERK1/2 over ERK1/2, normalized to basal (0 min), AT1R” value in data set [1] (time 0 min) was 1; in data set [1] (time 2 min), 0.1554 and 0.4142 and 0.5216 and 8.819; in data set [1] (time 5 min) it was 0.1741 and 0.568 and 0.6273 and 10.8319. The “Mean Diff. DMSO vs. compound of P-ERK/ERK (fold over Basal) (Dunnett's multiple comparisons test)” value in data set [1] (Fig.8b) is 6.88. The IC50 in data set [1] (Homo sapiens, read-out: IC50 for inhibition of ERK1/2 activation by AT1R) was 5 µM; with AT1R (Homo sapiens, AngII, into endosomes, read-out: IC50 for inhibition of AT1R internalization) it was 10 µM. Besides, the “ERK 1/2 activation, AT1R (p-ERK1/2 over ERK1/2, fold over basal)” value in data set [1] (Log [Comp 21] (M) -4.3) is 17.8621 percent compared to DMSO and 9.459 percent compared to DMSO and 11.994 percent compared to DMSO; in data set [1] (Log [Comp 21] (M) -5), 18.3493 percent compared to DMSO and 17.9264 percent compared to DMSO and 17.6879 percent compared to DMSO; in data set [1] (Log [Comp 21] (M) -5.3), 58.8009 percent compared to DMSO and 49.3558 percent compared to DMSO and 49.3771 percent compared to DMSO; in data set [1] (Log [Comp 21] (M) -6) it was 81.7633 percent compared to DMSO and 93.0329 percent compared to DMSO and 113.57 percent compared to DMSO; in data set [1] (Log [Comp 21] (M) -6.3), 97.88 percent compared to DMSO and 83.5696 percent compared to DMSO; in data set [1] (Log [Comp 21] (M) -7), 100 percent compared to DMSO. Also, the “MDA-MB-231 cell viability (MTT)” value in the data set on MDA-MB-231 cells (Doxorubicin 10 µM) is on record as “cell viability was not affected”. For the same compound, the “metabolic activity of MDA-MB-231 cells (MTT)” value with MDA-MB-231 cells (after 48 and 72 h of treatment, compared to DMSO) was “modestly decreased in a dose-dependent manner the metabolic activity of cancer cells”. The “block of AT1R internalization” value in the data set with AT1R (21 at 50 µM) is listed as “around 90%”. In addition, in the data set on AT1R (DMSO = 100), the “Mean Diff. DMSO vs. compound (Fig.8a, Dunnett's multiple comparisons test)” value amounted to 49.06. For the same compound, the “AT1R internalization into endosomes, ligand-promoted BRET (Mean)” value with AT1R (Log [Comp21] (M) -4.3) is recorded as 13.6921 percent compared to DMSO; with AT1R (Log [Comp21] (M) -4.6), 24.3306 percent compared to DMSO; with AT1R (Log [Comp21] (M) -5) it was 74.1156 percent compared to DMSO; in the data set with AT1R (Log [Comp21] (M) -5.3), 91.7102 percent compared to DMSO; with AT1R (Log [Comp 21] (M) -6), 95.8484 percent compared to DMSO; in the data set on AT1R (Log [Comp21] (M) -6.3) it was 92.6647 percent compared to DMSO. In addition, the “AT1R internalization into endosomes, ligand-promoted BRET (Mean)” value with AT1R (Log [Comp 21] (M) -7) was 100.935 percent compared to DMSO. The “AT1R Confirmation Inhibition (%DMSO)” value in the data set with AT1R (confirmation, two experiments, negative = potentiation) came to 60.3475 %DMSO. Moreover, in the data set on AT1R (primary screen, negative = potentiation), the “AT1R Primary Screen Inhibition (%DMSO)” value is listed as 53.93 %DMSO. In addition, the “inhibition of AT1R internalization” value with AT1R (screen and follow-up validation assay) is reported as “more than 50%”.
